Data from patent US4689345A, “Oxygenated alkyl substituted bicyclo alkanes” (CBD Corporation, priority 1986, dated 1987).
Entries after “also recorded” stand apart in the source; their conditions may differ.

Columns and labels:
human fibroblast cells [1] = experiment: Elastin production by fibroblast cells; assay type: cell-based; settings: for formation of elastin: Example 45; for increase in elastin production over control cells: treated vs control (non-treated) fibroblast cells
Description: (§1) Experiments generally following the methodology of Boote et al., Biochimica et Biophysica Acta, Volume 607, pages 145-160 (1980), have shown that while control human fibroblast cells have copious collagen production, treatment with the compounds of the invention provides human fibroblast cells with suppressed collagen production and with an about 30% increase in elastin production over control cells.
(§2) Wrinkling of the skin involves the decreased formation of elastin and the increased formation of collagen by supporting cells, predominantly the fibroblasts.

progesterone receptor [2] = experiment: Progesterone receptor inhibition, Fusarium calorum; assay type: binding
Description: In the second series of experiments using the compound of the invention 2-(5-hydroxyhept-1-yl) bicyclo[3.3.0]octan-7-one {hexahydro-4-(5-hydroxyheptyl)-2-(1H)-pentalenone} upon zeralenone and zearalanol production, zearalenone and zearalanol were chemically obtained from Sigma Chemical Co., St. Louis, Mo.

human fibroblast cells [3] = experiment: Collagen production by fibroblast cells; assay type: cell-based; settings: treated vs control cells
Description: as §1, §2

androgen receptor [4] = experiment: Androgen receptor inhibition, Norcardia; assay type: binding
androgen receptor [5] = experiment: Androgen receptor inhibition, Trichophyton; assay type: binding
androgen receptor [6] = target: T1, androgen receptor (Homo sapiens, UniProt P10275); experiment: In vitro inhibition of the androgen receptor-testosterone interaction; assay type: binding; set-up: from tissue; settings: for inhibition of the androgen receptor site: 10 molecules of compound for one molecule of testosterone; for Femtamoles of Testosterone Bound/mg Protein / % of Androgen Receptor Inhibition: ratio of compound to androgen 20:1; for Femtamoles of Testosterone Bound/mg Protein: corrected for nonspecific binding, 0:1 = 3.6; for % of Androgen Receptor Inhibition: testosterone
T1 sequence (P10275 1-920): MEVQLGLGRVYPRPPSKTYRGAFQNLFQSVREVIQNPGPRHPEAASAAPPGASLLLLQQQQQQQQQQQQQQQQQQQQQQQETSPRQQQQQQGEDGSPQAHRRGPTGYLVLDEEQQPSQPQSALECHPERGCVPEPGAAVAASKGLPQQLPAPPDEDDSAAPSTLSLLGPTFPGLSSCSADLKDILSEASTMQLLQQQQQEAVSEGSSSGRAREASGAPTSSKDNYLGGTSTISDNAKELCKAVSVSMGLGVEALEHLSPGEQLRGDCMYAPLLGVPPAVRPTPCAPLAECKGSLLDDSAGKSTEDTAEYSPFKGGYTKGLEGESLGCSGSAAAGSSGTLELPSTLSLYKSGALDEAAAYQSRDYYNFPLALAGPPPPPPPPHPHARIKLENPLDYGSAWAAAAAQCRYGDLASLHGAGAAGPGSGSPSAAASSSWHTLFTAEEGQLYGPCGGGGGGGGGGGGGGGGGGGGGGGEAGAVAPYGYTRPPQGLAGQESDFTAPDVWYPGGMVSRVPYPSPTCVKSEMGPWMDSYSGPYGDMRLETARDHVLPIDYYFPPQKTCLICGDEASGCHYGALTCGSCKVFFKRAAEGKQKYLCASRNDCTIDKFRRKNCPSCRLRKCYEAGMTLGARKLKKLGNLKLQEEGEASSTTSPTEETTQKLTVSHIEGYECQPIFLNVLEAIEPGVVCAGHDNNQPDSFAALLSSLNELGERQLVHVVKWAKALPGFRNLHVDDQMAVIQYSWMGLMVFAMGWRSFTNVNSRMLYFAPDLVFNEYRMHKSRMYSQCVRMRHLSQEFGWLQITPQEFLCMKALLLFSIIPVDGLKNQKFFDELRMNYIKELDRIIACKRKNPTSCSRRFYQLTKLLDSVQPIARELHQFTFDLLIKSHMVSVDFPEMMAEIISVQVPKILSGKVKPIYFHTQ
Method: Competitive inhibition experiments were performed using compound IV in the second technique described above.

estrogen receptor [7] = experiment: Estrogen receptor inhibition, Sporotrichum; assay type: binding
androgen receptor sites [8] = target: T2, androgen receptor sites (Homo sapiens, UniProt P10275); experiment: Anti-androgenic action in similar tests
T2 construct: other tests of the document use human skin, keloid and fibroblasts with 3H-DHT
Description: The test procedures set forth in Examples 54-58 may be repeated with the compound 2-(5-methoxyhept-1-yl)bicyclo[3.3.0]octan-7-one {hexahydro-4-(5-methoxyheptyl)-2(1H)-pentalenone}.

estrogen receptor [9] = experiment: Estrogen receptor inhibition, Torulopsis; assay type: binding
androgen receptor [10] = target: T1, androgen receptor; experiment: In vitro inhibition of the androgen receptor-DHT interaction; assay type: binding; set-up: from tissue; settings: for % of Androgen Receptor Inhibition: DHT; for Femtamoles of DHT Bound/mg Protein: corrected for nonspecific binding, 0:1 = 78
androgen receptor site = target: T3, androgen receptor site (Homo sapiens, UniProt P10275); experiment: % inhibition of labelled androgen (3H DHT) binding to caesarean section skin from hirsute patients
T3 construct: the test utilizing caesarean section skin from hirsute patients; from tissue; host or cells: caesarean section skin from hirsute patients
T3 sequence (P10275 1-920): T1 sequence (P10275 1-920)

estrogen receptor [11] = experiment: Fungal estrogen receptor inhibition, Fusarium; assay type: binding
Fusarium = experiment: Effects on Fusarium growth and fungal hormone production; assay type: cell-based
Description: It is also known that these fungi elaborate zearalenone and zearalanol which are toxic substances to livestock ingesting the grain rotted by them. Ingestion of these toxic substances is known to influence the prepubertal development of pigs (Berger et al., Journal of Animal Science, Vol. 53, pages 1559-1564 (1981). Zearalenone and zearalanol also affect milk production, breeding and pregnancy in such large livestock animals as pigs, cows and horses (Young et al., Journal of Animal Science, Vol. 54, pages 976-982). The Fusarium family of fungi also adversely affect chicken, turkey and other poultry animal populations (Allen et al., Poultry Science, Vol. 60, pages 124-131 (1981); Mirocha et al., Poultry Science, Vol. 60, pages 19-25 (1981)). Because of the importance of livestock production, the effect of the anti-androgens of this invention on these fungi was extensively studied. There is no currently available satisfactory treatment for the fungi nor the fungal hormones they elaborate (i.e., zearalenone and zearalanol).

progesterone receptors = experiment: Effect on progesterone receptors in breast capsule tissue; assay type: binding, human; settings: breast capsule / hard band tissue
Method: "Hard fibrous band" formation was retarded around breast implants following augmentation surgery.
The tissues were evaluated, with appropriate controls, for effects by the novel anti-androgen.

progesterone receptor [12] = experiment: Effect on progesterone receptors in melanoma; assay type: binding; settings: 1:1000 DHT to compound
androgen receptor sites [13] = target: T2, androgen receptor sites; experiment: Retarding collagen formation through blockage of androgen receptor sites; settings: Example 53
Method: Accordingly, to treat arteriosclerosis, an oral dosage unit formulation is produced which contains 2 mg of 2-(5-methoxyhept-1-yl)bicyclo [3.3.0]octan-7-one {hexahydro-4-(5-methoxyheptyl)-2(1H)-pentalenone}, which is delivered to a subject once every six hours.

[14] = ratio of compound to androgen 10:1
[15] = ratio of compound to androgen 100:1
[16] = ratio of compound to androgen 1000:1
[17] = ratio of compound to androgen 10000:1

Row | Compound | formation of elastin (human fibroblast cells [1]) | increase in elastin production over control cells (human fibroblast cells [1]) [%] | collagen production/formation (human fibroblast cells [3]) | inhibition of the androgen receptor site (androgen receptor [6]) | Femtamoles of Testosterone Bound/mg Protein (androgen receptor [6]) [Femtamoles/mg Protein] | % of Androgen Receptor Inhibition (androgen receptor [6]) [%] | anti-androgenic action (androgen receptor sites [8]) | % of Androgen Receptor Inhibition (androgen receptor [10]; [14]) [%] | % of Androgen Receptor Inhibition (androgen receptor [10]; [15]) [%] | Femtamoles of DHT Bound/mg Protein (androgen receptor [10]; [14]) [Femtamoles/mg Protein] | Femtamoles of DHT Bound/mg Protein (androgen receptor [10]; [15]) [Femtamoles/mg Protein] | % Inhibition of 3H Androgen Binding to Skin (androgen receptor site; [14]) [%] | % Inhibition of 3H Androgen Binding to Skin (androgen receptor site; [15]) [%] | % Inhibition of 3H Androgen Binding to Skin (androgen receptor site; [16]) [%] | % Inhibition of 3H Androgen Binding to Skin (androgen receptor site; [17]) [%] | inhibitory effects on species of Fusarium (Fusarium) | further results
1 | CCC(O)CCCCC1CCC2CC(=O)CC12 (stereo not shown) [Compound IV] | massive observable increase in the formation of elastin | ~30 | decreased | inhibited the androgen receptor site | 2.0 | 43.7 | anti-androgenic compound operating in the same manner | 25.6 | 41.0 | 58 | 46 | 25 | 51 | 75 | 83 | valuable inhibitory effects | % Progesterone Receptor Inhibition (progesterone receptor [2]; DHT:anti-androgen 1:1): 7%; % Progesterone Receptor Inhibition (progesterone receptor [2]; DHT:anti-androgen 1:10): 9%; collagen production/formation (human fibroblast cells [3]; listed as compound IV): decrease in collagen production; % Androgen Receptor Inhibition (androgen receptor [4]): 50%; % Androgen Receptor Inhibition (androgen receptor [5]): 81%; % Estrogen Receptor Inhibition (estrogen receptor [7]): 0%; % Estrogen Receptor Inhibition (estrogen receptor [9]): 0%; % Estrogen Receptor Inhibition (estrogen receptor [11]; fungal hormone Zeralanol): 0%; % Estrogen Receptor Inhibition (estrogen receptor [11]; fungal hormone Zeralenone): 0%; colony counts (Fusarium; Fusarium): markedly decreased; growth rate (Fusarium; Fusarium): markedly decreased; production of zearalanol (Fusarium; Fusarium): markedly decreased; production of zearalenone (Fusarium; Fusarium): markedly decreased
2 | CCC(CCCCC1CCC2CC(=O)CC12)OC (stereo not shown) [Compound V, 2-(5-Methoxyhept-1-yl)bicyclo[3.3.0]octan-7-one] | massive observable increase in the formation of elastin | ~30 | decrease in collagen production; also recorded: decreased | inhibited the androgen receptor site | 1.9 | 47.0 | anti-androgenic compound operating in the same manner | 43.6 | 51.3 | 44 | 38 | 32 | 55 | 80 | 86 | valuable inhibitory effects | effect on progesterone receptors (progesterone receptors): without any significant effects; effect on progesterone receptors (progesterone receptors; listed as 2-(5-methoxyhept-1-yl)bicyclo[3.3.0]octan-7-one): no significant effects; effect on progesterone receptors in melanoma tissue (progesterone receptor [12]): no significant effect; retarding collagen formation through blockage of androgen receptor sites (androgen receptor sites [13]): excellent results in retarding collagen formation through blockage of androgen receptor sites
